Assay results taken from PMC8803738, “Impact of the mouse model and molar amount of injected ligand on the tissue distribution profile of PSMA radioligands” (European Journal of Nuclear Medicine and Molecular Imaging, 2021).

Key:
[1] = test system: PC-3 PIP/flu tumor-bearing mice; assay: Biodistribution in PC-3 PIP/flu tumor-bearing mice; assay type: in vivo, mouse; conditions: for AUCTu(0→48 h)-to-AUCKi(0→48 h) ratio: PC-3 PIP model (female mice); for AUCTu(0→48 h)-to-AUCKi(0→48 h) ratio / AUC0→48h, Kidneys / AUC0→48h, PC-3 PIP tumor: average ± SE, non-decay-corrected
Experimental: (§1) Male BALB/c nude mice were subcutaneously inoculated on the right shoulder with LNCaP tumor cells (5 × 10^6 cells in PBS mixed with Matrigel (20 mg/mL, BD Biosciences) at a ratio of 3 to 1 (v/v) to a total volume of 200 μL per mouse). Biodistribution and SPECT/CT imaging studies with both tumor xenograft models were performed when the tumors reached a volume of 100–300 mm^3.
(§2) [^177Lu]Lu-Ibu-DAB-PSMA (5 MBq, 100 µL) and [^177Lu]Lu-PSMA-617 (5 MBq, 100 µL) were diluted in saline containing 0.05% bovine serum albumin (BSA) to prevent adherence of the radioligands to the syringe. The radioligands were intravenously injected at a ligand amount of 0.05 nmol or 1.0 nmol per mouse. The number of mice per setting was commonly n = 3 and, in case of inconclusive results, additional mice up to a total of n = 6 were included. The mice were sacrificed at 4 h, 24 h, or 48 h post injection (p.i.) and selected tissues and organs were collected, weighed, and counted in a γ-counter (Supplementary Material). The data sets were analyzed for significance using a one-way ANOVA with Sidak’s multiple comparison post-test using the GraphPad Prism software (version 8). A p value of < 0.05 was considered statistically significant. Tumor-to-kidney and tumor-to-blood ratios were calculated for all investigated timepoints after injection of each radioligand.
Time-activity curves over the first 48 h after injection of the radioligands were determined for the PC-3 PIP tumor, the LNCaP tumor, and the kidneys of the corresponding xenograft model based on non-decay-corrected time-dependent biodistribution data obtained at 4 h, 24 h, and 48 h p.i. This allowed calculating the areas under the curve (AUC0→48 h) using the GraphPad Prism software (version 8) (Supplementary Material). The tumor-to-kidney AUC0→48 h ratios were calculated for both xenograft models.
3. Biodistribution studies
Purpose: The impact of the tumor mouse model and the injected ligand amount on the biodistribution of [177Lu]Lu-Ibu-DAB-PSMA and [177Lu]Lu-PSMA-617 was investigated.
Methods: The biodistribution studies were conducted with either PC-3 PIP/flu or LNCaP tumor-bearing mice injected with either 0.05 nmol or 1.0 nmol of radioligand per mouse, whereas the applied activity was kept constant for each setting. The results were decay-corrected and the values indicated as average ± SD obtained from each gr oup of mice (n = 3−6) and listed as percentage of injected activity per gra m tissue [% IA/g].
Results: The results are listed below (Table S1–S4) and described and discussed in the main article.
Table S1 Decay -corrected biodistribution data of [177Lu]Lu-Ibu-DAB-PSMA in PC-3 PIP/flu tumor-bearing mice injected with either 0. 05 nmol or 1.0 nmol per mouse. The values are indicated as average ± SD obtained from each group of mice (n = 3−6) and listed as percentage of injected activity per gram […]
Dissection time 4 h p.i. 24 h p.i. 48 h p.i. […]
a Data obtained with 1.0 nmol [177Lu]Lu-Ibu-DAB-PSMA were reproduced from Deberle et al. […]
radioligands in order to be able to judge the changes in activity uptake in the tumor and kidney s as a consequence of the tumor model and the injected amount of ligand, respectively.
Methods: T he time-activity curves over the first 48 h after injection were determined for the PC-3 PIP tumor, the LNCaP tumor as well as for the kidneys of each tumor mouse model based on non-decay - corrected time-dependent biodistribution data. For these calculations, the radioligand uptake in the tumors and the kidney s at t = 0 h p.i. was set to 0% IA/g.

[2] = test system: PC-3 PIP/flu or LNCaP tumor-bearing mice; assay: Biodistribution, comparison or ranges over both PC-3 PIP and LNCaP tumor mouse models; assay type: in vivo
Experimental: as §1, §2

[3] = PC-3 PIP model, 4 h p.i., 0.05 nmol
[4] = PC-3 PIP model, 24 h p.i., 0.05 nmol
[5] = PC-3 PIP model, 48 h p.i., 0.05 nmol

CC(C)Cc1ccc(C(C)C(=O)NC(CCN)C(=O)NCCCCC(NC(=O)CN2CCN(CC(=O)O)CCN(CC(=O)O)CCN(CC(=O)O)CC2)C(=O)NCC2CCC(C(=O)NC(Cc3ccc4ccccc4c3)C(=O)NCCCCC(NC(=O)NC(CCC(=O)O)C(=O)O)C(=O)O)CC2)cc1 (centres unmarked) [[^177Lu]Lu-Ibu-DAB-PSMA, metal not drawn]
PC-3 PIP tumor uptake, low vs high ligand amount ([1]; 0.05 nmol vs 1.0 nmol, 24 h and 48 h p.i.): 1.5–1.6 fold | AUCTu(0→48 h)-to-AUCKi(0→48 h) ratio ([1]; 0.05 nmol): 3.2 ± 0.5 | AUCTu(0→48 h)-to-AUCKi(0→48 h) ratio ([1]; 1.0 nmol): 5.6 ± 0.7 | AUC0→48h, Kidneys ([1]; PC-3 PIP model, 0.05 nmol): 945 ± 97 % IA/g*h | AUC0→48h, PC-3 PIP tumor ([1]; PC-3 PIP model, 0.05 nmol): 3027 ± 206 % IA/g*h | Increase of tumor-to-kidney AUC0→48 h ratio for high vs low molar amount of injected ligand ([1]; PC-3 PIP model, 1.0 nmol vs 0.05 nmol): 1.8 fold | AUC0→48h, Kidneys ([1]; PC-3 PIP model, 1.0 nmol): 388 ± 23 % IA/g*h | AUC0→48h, PC-3 PIP tumor ([1]; PC-3 PIP model, 1.0 nmol): 2166 ± 153 % IA/g*h | Tissue distribution, Blood [1, 3]: 1.3 ± 0.3 % IA/g | Tissue distribution, Bone [1, 3]: 0.29 ± 0.06 % IA/g | Tissue distribution, Heart [1, 3]: 0.54 ± 0.12 % IA/g | Tissue distribution, Intestines [1, 3]: 0.29 ± 0.05 % IA/g | Tissue distribution, Kidneys [1, 3]: 69 ± 10 % IA/g | Tissue distribution, Liver [1, 3]: 1.1 ± 0.1 % IA/g | Tissue distribution, Lung [1, 3]: 1.3 ± 0.3 % IA/g | Tissue distribution, Muscle [1, 3]: 0.22 ± 0.06 % IA/g | Tissue distribution, PC-3 PIP tumor [1, 3]: 81 ± 4 % IA/g | Tissue distribution, PC-3 flu tumor [1, 3]: 0.67 ± 0.10 % IA/g | Tissue distribution, Salivary glands [1, 3]: 0.69 ± 0.18 % IA/g | Tissue distribution, Spleen [1, 3]: 1.9 ± 0.4 % IA/g | Tissue distribution, Stomach [1, 3]: 0.33 ± 0.09 % IA/g | Tumor-to-blood ratio [1, 3]: 65 ± 20 | Tumor-to-kidney ratio [1, 3]: 1.2 ± 0.2 | Tumor-to-liver ratio [1, 3]: 74 ± 8 | Tissue distribution, Blood [1, 4]: 0.23 ± 0.03 % IA/g | Tissue distribution, Bone [1, 4]: 0.13 ± 0.04 % IA/g | Tissue distribution, Heart [1, 4]: 0.15 ± 0.02 % IA/g | Tissue distribution, Intestines [1, 4]: 0.11 ± 0.03 % IA/g | Tissue distribution, Kidneys [1, 4]: 5.5 ± 1.0 % IA/g | Tissue distribution, Liver [1, 4]: 0.54 ± 0.13 % IA/g | Tissue distribution, Lung [1, 4]: 0.27 ± 0.04 % IA/g | Tissue distribution, Muscle [1, 4]: < 0.10 % IA/g | Tissue distribution, PC-3 PIP tumor [1, 4]: 78 ± 14 % IA/g | Tissue distribution, PC-3 flu tumor [1, 4]: 0.31 ± 0.05 % IA/g | Tissue distribution, Salivary glands [1, 4]: 0.21 ± 0.02 % IA/g | Tissue distribution, Spleen [1, 4]: 0.42 ± 0.09 % IA/g | Tissue distribution, Stomach [1, 4]: 0.11 ± 0.02 % IA/g | Tumor-to-blood ratio [1, 4]: 341 ± 48 | Tumor-to-kidney ratio [1, 4]: 14 ± 2 | Tumor-to-liver ratio [1, 4]: 149 ± 34 | Tissue distribution, Blood [1, 5]: 0.13 ± 0.03 % IA/g | Tissue distribution, Bone [1, 5]: < 0.10 % IA/g | Tissue distribution, Heart [1, 5]: < 0.10 % IA/g | Tissue distribution, Intestines [1, 5]: < 0.10 % IA/g | Tissue distribution, Kidneys [1, 5]: 2.3 ± 0.4 % IA/g | Tissue distribution, Liver [1, 5]: 0.28 ± 0.03 % IA/g | Tissue distribution, Lung [1, 5]: 0.18 ± 0.04 % IA/g | Tissue distribution, Muscle [1, 5]: < 0.10 % IA/g | Tissue distribution, PC-3 PIP tumor [1, 5]: 58 ± 9 % IA/g | Tissue distribution, PC-3 flu tumor [1, 5]: 0.17 ± 0.01 % IA/g | Tissue distribution, Salivary glands [1, 5]: 0.11 ± 0.02 % IA/g | Tissue distribution, Spleen [1, 5]: 0.25 ± 0.05 % IA/g | Tissue distribution, Stomach [1, 5]: 0.12 ± 0.08 % IA/g | Tumor-to-blood ratio [1, 5]: 445 ± 51 | Tumor-to-kidney ratio [1, 5]: 26 ± 2 | Tumor-to-liver ratio [1, 5]: 205 ± 10 | Tumor accumulation in PC-3 PIP vs LNCaP tumor xenografts ([2]; 0.05 nmol): approximately fourfold | Tumor uptake in PC-3 PIP vs LNCaP tumor xenografts ([2]; 1.0 nmol): 6 fold | Kidney retention, low vs high amount of injected ligand ([2]; 4 h p.i., 0.05 nmol vs 1.0 nmol): about fourfold | Kidney retention ([2]; 4 h p.i., high amount of injected ligand (1.0 nmol), range over both mouse models (PC-3 PIP data reproduced from earlier papers)): 16–19 % IA/g | Kidney retention ([2]; 4 h p.i., low amount of injected ligand (0.05 nmol), range over both mouse models): 58–69 % IA/g | Renal retention of activity ([2]; 24 h p.i., irrespective of the injected ligand amount, range over both mouse models): 5.5–6.8 % IA/g
